Data: patent US12252480B2, “Salt forms and polymorphs of (R)-1-(4-(6-(2-(4-(3,3-difluorocyclobutoxy)-6-methylpyridin-2-yl)acetamido) pyridazin-3-yl)-2-fluorobutyl)-n-methyl-1H-1,2,3-triazole-4-carboxamide” (Board of Regents, The University of Texas System, priority 2015, dated 2025)

How the values were obtained:
A549 cells = assay: Proliferation Assay (A549, Cell Titer Fluor); assay type: cell-based; conditions: Homo sapiens, 72 hours incubation, read-out: EC50 against A549 cell proliferation
Description: Proliferation Assay. A549 cells were routinely maintained in RPMI 1640 media (Gibco catalog number 11875-093) supplemented with 10% dialyzed fetal bovine serum using a humidified incubator (37° C., 5% CO2 and ambient O2). In preparation for the viability assay, cells were inoculated into 384-well black CulturPlates (Perkin Elmer) at a density of 1000 cells/well in a volume of 40 uL. Following a 24-hour incubation at 37° C., 5% CO2 and ambient O2, cells were treated with compound (10 uL) in a final DMSO concentration of 0.5% (v/v). The microplates were then incubated for 72 hours (37° C., 5% CO2 and ambient O2). Cell Titer Fluor (Promega) was subsequently added (10 uL of 6× reagent) and mixed for 15 minutes at room temperature. The plates were then incubated for 30 minutes (37° C., 5% CO2 and ambient O2) and fluorescence was subsequently read on the Perkin Elmer Envision plate reader. IC50 values were calculated using a four-parameter logistic curve fit.

[1] = Dynamic Vapor Sorption (DVS); assay type: physicochemical
Description: Dynamic Vapor Sorption (DVS) was examined with an SMS Advantage instrument. About 10 mg of sample was transferred into the instrument, and the weight change with respect to the atmospheric humidity at 25° C. was recorded accordingly, with the following parameters: Equilibrium: dm/dt: 0.01%/min. (for min: 10 min and max: 180 min); drying: 0% RH for 120 min; RH (%) measurement step: 10%; RH (%) measurement step scope: 0-90-0%.

Structure (SMILES): CNC(=O)c1cn(C[C@H](F)CCc2ccc(NC(=O)Cc3cc(OC4CC(F)(F)C4)cc(C)n3)nn2)nn1 [Example 1, (R)-1-(4-(6-(2-(4-(3,3-difluorocyclobutoxy)-6-methylpyridin-2-yl)acetamido)pyridazin-3-yl)-2-fluorobutyl)-N-methyl-1H-1,2,3-triazole-4-carboxamide]
- EC50 (A549 cells): < 100 nM

Structure (SMILES): CNC(=O)c1cn(C[C@H](F)CCc2ccc(NC(=O)Cc3cc(OC4CC(F)(F)C4)cc(C)n3)nn2)nn1 [Polymorph D, (R)-1-(4-(6-(2-(4-(3,3-difluorocyclobutoxy)-6-methylpyridin-2-yl)acetamido)pyridazin-3-yl)-2-fluorobutyl)-N-methyl-1H-1,2,3-triazole-4-carboxamide]
- hygroscopicity (DVS result) ([1]; 25° C., 0-80% RH): non-hygroscopic
- Change of Mass, Desorption ([1]; Target % P/P0 0): 0.052%
- Change of Mass, Sorption ([1]; Target % P/P0 0): 0.000%
- Change of Mass, Desorption ([1]; Target % P/P0 10): 0.0276%
- Change of Mass, Hysteresis ([1]; Target % P/P0 10): 0.0060%
- Change of Mass, Sorption ([1]; Target % P/P0 10): 0.0216%
- Change of Mass, Desorption ([1]; Target % P/P0 20): 0.0440%
- Change of Mass, Hysteresis ([1]; Target % P/P0 20): 0.0104%
- Change of Mass, Sorption ([1]; Target % P/P0 20): 0.0336%
- Change of Mass, Desorption ([1]; Target % P/P0 30): 0.0587%
- Change of Mass, Hysteresis ([1]; Target % P/P0 30): 0.0112%
- Change of Mass, Sorption ([1]; Target % P/P0 30): 0.0474%
- Change of Mass, Desorption ([1]; Target % P/P0 40): 0.0759%
- Change of Mass, Hysteresis ([1]; Target % P/P0 40): 0.0181%
- Change of Mass, Sorption ([1]; Target % P/P0 40): 0.0578%
- Change of Mass, Desorption ([1]; Target % P/P0 50): 0.0906%
- Change of Mass, Hysteresis ([1]; Target % P/P0 50): 0.0216%
- Change of Mass, Sorption ([1]; Target % P/P0 50): 0.0690%
- Change of Mass, Desorption ([1]; Target % P/P0 60): 0.1087%
- Change of Mass, Hysteresis ([1]; Target % P/P0 60): 0.0259%
- Change of Mass, Sorption ([1]; Target % P/P0 60): 0.0828%
- Change of Mass, Desorption ([1]; Target % P/P0 70): 0.1294%
- Change of Mass, Hysteresis ([1]; Target % P/P0 70): 0.0259%
- Change of Mass, Sorption ([1]; Target % P/P0 70): 0.1035%
- Change of Mass, Desorption ([1]; Target % P/P0 80): 0.1527%
- Change of Mass, Hysteresis ([1]; Target % P/P0 80): 0.0190%
- Change of Mass, Sorption ([1]; Target % P/P0 80): 0.1337%
- Change of Mass, Desorption ([1]; Target % P/P0 90): 0.1768%
- Change of Mass, Sorption ([1]; Target % P/P0 90): 0.1768%
- form transformation after DVS (XRPD overlay) ([1]; after DVS 0-90-0% RH): no form transformation
- water sorption ([1]; from 0-80% RH, 25° C.): 0.1%
